Data published in patent publication US20100130408A1, “USE OF MODIFIED CYCLOSPORINS” (priority 2006, published 2010).

Legend:
[1] = molecular target: cyclophilin A (Homo sapiens, UniProt P62937); details: Waldmeier et al, Mol Pharmacol (2002); cited from earlier work
[2] = system: TGFβ Signaling Pathways; assay: Western blot analysis for phospho- and nonphospho-Smad2 and Smad3; assay type: cell-based, human; details: 0.5 μM
Method: Western blot analysis for phospho- and nonphospho-Smad2 and Smad3: Western blot analysis is performed as described above for MAPK analysis and probed with a primary antibody for Smad2, phospho-Smad2 (Thr/Tyr), Smad3, or phospho-Smad3 (Thr/Tyr) (Cell Signaling Technology, Danvers, Mass.). For comparison, the ratios of phosphorylated Smad2 and Smad3 to nonphosphorylated Smad2 and Smad3, respectively, are calculated from densitometric data.

[3] = system: HSCs; assay: BrdU incorporation (cell proliferation ELISA); assay type: cell-based, rat
Method: (§1) A. In vitro Cell culture: HSCs are isolated from the liver of male Wistar rats by sequential in situ perfusion with collagenase and digestion with pronase, followed by centrifugation in a double-layered (17%/11.5%) metrizamide solution (Sigma. Chemical, St. Louis, Mo.), as described in Kato, et al, J. Hepatol (1999) 31:91-99. HSCs are cultured in Dulbecco's modified Eagle's medium (DMEM) with 10% fetal calf serum (FCS). Experiments are performed on cells between the third and fourth serial passages. To measure […] matrix metalloproteinase (MMP-1) and tissue inhibitor of matrix metalloproteinase (TIMP-1), TWNT-4 cells which is a human cell line derived from HSCs as produced according to Shibata, et al, Cell Transplant (2003) 12:499-507 is used for evaluating the effects of Fasudil on MMP-1 and TIMP-1. TWNT-4 cells are cultured in DMEM with 10% FCS as reported previously (Id). NIM811 (Novartis Pharma AG, Basel, Switzerland) is dissolved in DMEM and added to cultures. […]
Analysis of BrdU incorporation: HSC incorporation of BrdU is measured using a cell proliferation ELISA (Roche Diagnostics GmbH, Mannheim, Germany) as described in Higashi, et al, J. Lab Clin Med (2005) 145(6):316-322. […] BrdU incorporation is estimated by measuring the […].

[4] = Cell viability of HSCs; assay type: cell-based; details: male, Wistar, rat, primary hepatic stellate cells (HSCs), 2 μM NIM811, serum-free conditions
Method: (§2) A. In vitro Cell culture: HSCs are isolated from the liver of male Wistar rats by sequential in situ perfusion with collagenase and digestion with pronase, followed by centrifugation in a double-layered (17%/11.5%) metrizamide solution (Sigma. Chemical, St. Louis, Mo.), as described in Kato, et al, J. Hepatol (1999) 31:91-99. HSCs are cultured in Dulbecco's modified Eagle's medium (DMEM) with 10% fetal calf serum (FCS). Experiments are performed on cells between the third and fourth serial passages. To measure […] matrix metalloproteinase (MMP-1) and tissue inhibitor of matrix metalloproteinase (TIMP-1), TWNT-4 cells which is a human cell line derived from HSCs as produced according to Shibata, et al, Cell Transplant (2003) 12:499-507 is used for evaluating the effects of Fasudil on MMP-1 and TIMP-1. TWNT-4 cells are cultured in DMEM with 10% FCS as reported previously (Id). NIM811 (Novartis Pharma AG, Basel, Switzerland) is dissolved in DMEM and added to cultures. Cell viability of HSCs is more than 90% under serum-free conditions for 24 h in the presence of 2 μM NIM811.

[5] = system: MAPKs Signaling Pathways; assay: Western blot analysis for phospho- and nonphospho-MAPKs; assay type: cell-based, human
Method: Western blot analysis for phospho- and nonphospho-MAPKs: Western blot analysis is performed as described in Uchimura, et al, Hepatology (2001) 33:91099. HSCs are starved for 24 h, then treated with or without NIM811 for 2 h. Whole cell lysates containing 1×10^7 TWNT-4 cells are prepared in 100 μl SDS-PAGE sample buffer. Protein lysates are subjected to 12% SDS-PAGE, transferred to a polyvinylidene difluoride membrane (Millipore, Bedford, Mass.), and probed with the primary antibody for ERK1/2 MAPK, phospho-ERK1/2 MAPK (Thr202/Tyr204), JNK, phospho-JNK (Thr183/Tyr185), p38 MAPK, or phospho-p38 MAPK (Thr180/Tyr182) (New England Biolabs, Beverly, Mass.). Antibody binding is detected using peroxidase linked anti-rabbit IgG (Amersham Pharmacia Biotech, Piscataway, N.J.) as the secondary antibody. The blots are developed using ECL-plus (Amersham Pharmacia Biotech, Piscataway, N.J.) to visualize the antibodies. The levels of ERK1/2 MAPK, phosphorylated-ERK1/2 MAPK, JNK, phosphorylated-JNK, p38 MAPK, and phosphorylated-p38 MAPK are quantitated by densitometry using an optical scanner system. For comparison, the ratios of phosphorylated ERK1/2, JNK, and p38 MAPK to nonphosphorylated ERK1/2, JNK, and p38 MAPK, respectively, are calculated from the densitometric data.

[6] = system: cultured mouse hepatocytes; details: Kon et al, Hepatology (2004); cited from earlier work
[7] = system: TWNT-4 cells; assay: MMP-1, TIMP-1, and collagenase assay; assay type: cell-based, human
Method: as §2
MMP-1, TIMP-1, and collagenase assay: Cultured TWNT-4 cells are incubated in serum-free medium in the presence or absence of NIM811 for 24 h. MMP-1 and TIMP-1 production are determined in culture media by ELISA with a Biotrak ELISA system for human MMP-1 (Amersham Biosciences, Piscataway, N.J., USA) and an hTIMP-1 kit (Daiichi Fine Chemical Co. Ltd., Toyama, Japan), respectively following procedures described in Fukushima, et al, Liver Int (2005) 25:829-838. Active MMP-1 and pro-MMP-1 in culture media are determined with a MMP-1 Biotrak Activity Assay System (Amersham).

[8] = system: HCV; details: Watashi et al., Hepatology (2003); cited from earlier work
[9] = system: HSCs; assay: Analysis of apoptosis (TUNEL); assay type: cell-based, rat; details: 2 μM
Method: as §1
Analysis of Apoptosis: HSCs are maintained in either the presence or absence of NIM811 in serum-free conditions for 24 h. […] Cells are then stained with Hoechst 33342, and analyzed by the TUNEL method using an In Situ Cell Death Detection Kit (Roche) according to the manufacturer's instructions. […] At least 100 cells from three independent experiments and from three different cell preparations are counted for each condition.

Chain of cyclophilin A (P62937 whole entry, species assumed): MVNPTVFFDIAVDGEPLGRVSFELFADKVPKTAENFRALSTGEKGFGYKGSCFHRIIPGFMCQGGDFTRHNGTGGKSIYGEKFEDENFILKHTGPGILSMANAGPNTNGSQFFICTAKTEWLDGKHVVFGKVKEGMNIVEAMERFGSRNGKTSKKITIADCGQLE

C/C=C/C[C@@H](C)[C@@H](O)[C@H]1C(=O)N[C@@H](CC)C(=O)N(C)CC(=O)N(C)[C@@H]([C@@H](C)CC)C(=O)N[C@@H](C(C)C)C(=O)N(C)[C@@H](CC(C)C)C(=O)N[C@@H](C)C(=O)N[C@H](C)C(=O)N(C)[C@@H](CC(C)C)C(=O)N(C)[C@@H](CC(C)C)C(=O)N(C)[C@@H](C(C)C)C(=O)N1C [NIM811]
binding to cyclophilin A [1]: does not bind to cyclophilin A | suppression of phosphorylation of Smad2 [2]: ~70% | suppression of phosphorylation of Smad3 [2]: ~60% | cell growth of HSCs [3]: suppresses cell growth of HSCs in a concentration-dependent manner | decrease of new DNA synthesis (BrdU incorporation) ([3]; 2.0 μM): ~30% | viability at 24 h, 2 µM [4]: > 90% | phosphorylation of ERK1/2 [5]: does not suppress ERK1/2 | enhancement of phosphorylation of JNK ([5]; 0.5 μM): ~3.6 fold | enhancement of phosphorylation of p38 MAPK ([5]; 0.5 μM): ~2.3 fold | acetaminophen-induced necrosis and apoptosis [6]: prevented acetaminophen-induced necrosis and apoptosis | increase in collagenase activity (active MMP-1) ([7]; 0.5 μM): roughly 2 fold | TIMP-1 production ([7]; 2.0 μM): does not significantly reduce TIMP-1 production | collagenase activity (active MMP-1) and pro-MMP-1 levels ([7]; increasing concentrations): concentration-dependent increase | replication of HCV in vitro [8]: suppresses replication of HCV replication in vitro | apoptosis [9]: no apoptosis is observed
